Source: paper PMC11150675, “Simultaneous determination of multiple components in rat plasma by UPLC-MS/MS for pharmacokinetic studies after oral administration of Pogostemon cablin extract” (Frontiers in Pharmacology, 2024)
Like-named read-outs stand apart in the source and are kept apart here.

Assays:
[1] = PK study in rats after single oral administration of Pogostemon cablin (PC) extract, plasma analysed by UPLC-MS/MS; details: for detection in plasma after oral PC extract: no complete PK profile obtained; for shape of plasma concentration-time curve: Figure 2
Method: (§1) The 100 μL plasma sample was combined with 20 μL of ME, 20 μL of IS (500 ng/mL), and 2.5 μL of FA, followed by vortexing for 1 min. This mixture underwent extraction with 600 μL ACN through vortexing at room temperature for 3 min. Subsequent to centrifugation at 14,000 rpm for a period of 10 min, the resulting supernatant was moved to another tube and dried under a stream of nitrogen. The dried residue was dissolved in 100 μL ME-ACN (50:50 v/v), followed by vortexing for 5 min, and subsequent centrifugation at 14,000 rpm for 10 min. Finally, 20 μL of the supernatant was used for analysis.
(§2) A concentration of 0.5 g/mL of PC extract was obtained by dissolving in 0.5% CMC-Na aqueous solution. The PC suspension of the 4.0 g/kg dose was given to rats by single oral administration. […] Subsequently, the plasma collected underwent centrifugation at a speed of 7000 rpm for a duration of 10 min. It was then moved to clean tubes and kept at a temperature of −80°C.
(§3) Data in this study was presented as the mean ± standard deviation (SD). The MassHunter Workstation software (version B.09.00, Agilent, United States) was utilized for determining the plasma levels of the 15 analytes. Additionally, PK parameters were analyzed using DAS 3.0 Software (Medical College of Wannan, China).

[2] = rat, in vivo, po, 4 g/kg
Method: as §1, §2, §3

[3] = rat plasma, PC extract 4.0 g/kg oral
[4] = rat plasma, PC extract 4.0 g/kg single oral dose, n = 6

| AUC ([1]; male, rat, plasma, po, 4 g/kg) [ng·h/mL] | AUC(0-inf) ([1]; male, rat, plasma, po, 4 g/kg) [ng·h/mL] | Cmax ([1]; male, rat, plasma, po, 4 g/kg) [ng/mL] | Tmax ([1]; male, rat, plasma, po, 4 g/kg) [h] | half-life ([1]; male, rat, plasma, po, 4 g/kg) [h] | Compound | also measured |
| --- | --- | --- | --- | --- | --- | --- |
| 243 ± 63.5 | 243 ± 63.5 | 47.8 ± 15.9 | 0.8 ± 0.2 | 2 ± 0.1 | COc1cc(O)c2c(=O)c(OC)c(-c3ccc(O)c(OC)c3)oc2c1 [Pachypodol, pachypodol] | shape of plasma concentration-time curve ([1]; rat plasma, PC extract oral): double-peak phenomenon |
| 92.2 ± 33 | 92.2 ± 33 | 33 ± 14.6 | 0.9 ± 0.6 | 1.5 ± 0.2 | COc1cc(O)c2c(=O)c(OC)c(-c3ccc(OC)c(OC)c3)oc2c1 [Retusin, retusin] | – |
| 1310 | 1310 | 116 ± 36.8 | 1.4 ± 1.4 | 2.5 ± 0.1 | COc1cc(C(=O)O)ccc1O [Vanillic acid, vanillic acid] | – |
| 1700 ± 394 | 1700 ± 394 | 554 ± 159 | 0.4 ± 0.3 | 2.6 ± 0.21 | C[C@@H]1O[C@@H](O[C@@H]2[C@@H](O)[C@H](OCCc3ccc(O)c(O)c3)O[C@H](CO)[C@H]2OC(=O)/C=C/c2ccc(O)c(O)c2)[C@H](O)[C@H](O)[C@H]1O [Verbascoside, verbascoside] | – |

Continued, compound first:

| Compound | AUC ([1]; male, rat, plasma, po, 4 g/kg) [ng·h/mL] | AUC(0-inf) ([1]; male, rat, plasma, po, 4 g/kg) [ng·h/mL] | Cmax ([1]; male, rat, plasma, po, 4 g/kg) [ng/mL] | Tmax ([1]; male, rat, plasma, po, 4 g/kg) [h] | half-life ([1]; male, rat, plasma, po, 4 g/kg) [h] | also measured |
| --- | --- | --- | --- | --- | --- | --- |
| COc1ccc(-c2cc(=O)c3c(O)cc(O)cc3o2)cc1 [Acacetin, acacetin] | – | – | – | – | – | detection in plasma after oral PC extract [1, 3]: only detected in the initial plasma samples |
| O=c1cc(-c2ccc(O)cc2)oc2cc(O)cc(O)c12 [Apigenin, apigenin] | 255 ± 65.5 | 255 ± 65.5 | 64.2 ± 15.8 | 0.3 ± 0.2 | 2.7 ± 0.6 | shape of plasma concentration-time curve ([1]; rat plasma, PC extract oral): double-peak phenomenon |
| O=c1cc(-c2ccc(O)cc2)oc2cc(O[C@@H]3O[C@H](CO)[C@@H](O)[C@H](O)[C@H]3O)cc(O)c12 [Cosmosiin, cosmosiin] | – | – | – | – | – | T1/2z [2]: 3.7 ± 0.6 h |
| COc1ccc(-c2cc(=O)c3c(O)cc(O[C@@H]4O[C@H](CO)[C@@H](O)[C@H](O)[C@H]4O)cc3o2)cc1O [Diosmetin-7-O-β-D-glucopyranoside, diosmetin-7-O-β-D-glucopyranoside] | – | – | – | – | – | detection in plasma after oral PC extract [1, 3]: only detected in the initial plasma samples |
| O=c1c(O[C@@H]2O[C@H](CO)[C@H](O)[C@H](O)[C@H]2O)c(-c2ccc(O)c(O)c2)oc2cc(O)cc(O)c12 [Hyperoside, hyperoside] | – | – | – | – | – | detection in plasma after oral PC extract [1, 3]: only detected in the initial plasma samples |
| C[C@@H]1O[C@@H](O[C@@H]2[C@@H](O)[C@H](OCCc3ccc(O)c(O)c3)O[C@H](COC(=O)/C=C/c3ccc(O)c(O)c3)[C@H]2O)[C@H](O)[C@H](O)[C@H]1O [Isoacteoside, isoacteoside] | 384 ± 93.8 | 384 ± 93.8 | 109 ± 41.5 | 0.5 ± 0.3 | 2.9 ± 0.3 | – |
| COc1cc(O)c2c(=O)c(O)c(-c3ccc(OC)c(O)c3)oc2c1 [Ombuin, ombuin] | – | – | – | – | – | AUC (0-tn) [1, 4]: 95.1 ± 28.1 µg·h/L; AUC (0-∞) [1, 4]: 95.4 ± 28.4 ng·h/mL; Cmax [1, 4]: 11.2 ± 1.5 ng/mL; T1/2z [1, 4]: 3.8 ± 1.8 h; Tmax [1, 4]: 0.6 ± 0.2 h |
| Cc1cc(O)c(C(=O)CCC(C)C)c(=O)o1 [Pogostone, pogostone] | – | – | – | – | – | concentration maximum (Cmax) [1, 3]: 37204.0 ± 10,901.0 ng/mL; AUC (0-tn) [1, 4]: 258294.0 ± 93,104.7 μg/L*h; AUC (0-∞) [1, 4]: 258320.9 ± 93120.6 ng·h/mL; Cmax [1, 4]: 37204.0 ± 10,901.0 μg/L; T1/2z [1, 4]: 0.8 ± 0.5 h; Tmax [1, 4]: 1.9 ± 1.3 h; area-under-the-curve (AUC) compared with other constituents ([1]; rat plasma, PC extract oral): significantly exceeded that of the other constituents |
| O=c1cc(-c2ccc(O)cc2)oc2c([C@@H]3O[C@H](CO)[C@@H](O)[C@H](O)[C@H]3O)c(O)c([C@@H]3O[C@H](CO)[C@@H](O)[C@H](O)[C@H]3O)c(O)c12 [Vicenin-2, vicenin-2] | – | – | – | – | – | AUC (0-tn) [1, 4]: 968.0 ± 131.9 µg·h/L; AUC (0-∞) [1, 4]: 968.8 ± 132.9 ng·h/mL; Cmax [1, 4]: 249.4 ± 50.8 ng/mL; T1/2z [1, 4]: 1.2 ± 0.6 h; Tmax [1, 4]: 0.3 ± 0.1 h |
| O=c1cc(-c2ccc(O)cc2)oc2c([C@@H]3O[C@H](CO)[C@@H](O)[C@H](O)[C@H]3O)c(O)cc(O)c12 [Vitexin, vitexin] | – | – | – | – | – | detection in plasma after oral PC extract [1, 3]: only detected in the initial plasma samples |
